According to patent US10233206B2, “D-fagomine for the control of inflammatory processes related to an overactivation of the humoral immune response” (priority 2013, dated 2019):
Several values for one entry are separate records, joined by “and”; a condition that tells them apart may be missing. Equal entries are not always repeated. Entries after “also recorded” stand apart in the source; their conditions may differ.

What was measured:
[1] = tested on: E. coli 434; assay: Recovery of E. coli in tissue: ex vivo adhesion of E. coli to human colon mucosal samples (organ culture); assay type: cell-based; conditions: for E coli × 10 6 Recovery on tissue: 4 h culture with E. coli, individual samples 1 and 2; for E coli × 10 6 Standarized 30 mg, Average: mean of 2 samples; for E coli × 10 6 Standarized 30 mg: normalized to 30 mg tissue, individual samples; for E. coli recovery in tissue, Average % over control: control Ec = 100.0%
Description: (§1) The aim of this investigation was to determine the effects “ex vivo” of D-fagomine on the adhesion of E. coli to human colon mucosal samples and their possible influence on the release of inflammatory mediators on a range of doses as an indication of the activation of the innate immune response.
(§2) The approach, included the incubation of an E. coli strain with mucosal colonic samples obtained by surgery. The intention was to preserve the whole structure of mucosal samples including multiple cell populations such as epithelial cells and immunocompetent cells (macrophages, dendritic cells, plasma cells and lymphocytes), all of them keeping their original structure and disposition for cell to cell interaction. In other words, the approach was intended for mimicking the “in vivo” conditions of the colon mucosa.
In the design of the study doses of 0, 50, 500 and 5000 μg/ml of D-fagomine were tested.
Pathogenic strains of E coli were used. The main differences of pathogenic strains of E coli vs. other non pathogenic are related to their capacity to avoid the immune system.
(§3) Samples of macroscopically normal colonic mucosa were obtained at surgery from patients undergoing colectomy for colonic cancer. Areas free of disease were collected in ice-cold saline and transferred immediately to the Laboratory of the Digestive Research Unit of Hospital's Vail d'Hebron (Barcelona). After washing with saline, the mucosa was dissected from the muscularis layer and pieces between 25 and 30 mg were placed surface up in culture wells (15 mm diameter wells with 500 μm bottom mesh, Netwell culture systems, Costar, Cambridge, Mass.), and orientated so that the epithelial surface was upper-most. Filters were suspended over wells containing 1.5 ml of RPMI edium (CanSera, Rexdale, Ontario, Canada) supplemented with 10% foetal calf serum (FCS; Gibco-BRL, Eggenstein, Germany), glutamine 2 mM and antibiotics: 100 U/ml penicillin, 100 microg/ml streptomycin and 50 microg/ml gentamycin, (all from Normon, Madrid, Spain). This volume is just for maintaining the humidity of the surface but not for sinking beneath the surface.
(§4) Biopsies were incubated at 37° C. in a 95% O2+5% CO2 atmosphere and stimulated during 1 h with PMA (phorbol-12-myristate-13-acetate) and lonomycin (100/1000 ng/mL), both available from Sigma.
(§5) Thereafter, medium was replaced by fresh RPMI 1640 medium (without glucose) supplemented with 10% FCS and sodium bicarbonate at 24 mmol/L.
(§6) Bacteria strain E. coli ([…]) and fagomine (50, 500 and 5000 μg/mL) were added carefully to the explants. After 4 h of culture of tissues with E. coli, supernatants were collected for measurement of E. coli recovery, release of TNF-α, LDH (viability) and pH. Moreover, the tissues were rinsed, homogenized and assayed for E. coli recovery and LDH (to study tissue viability).
The pathogenic E. coli reference strain (CECT 434, (Migula 1895) Castellani and Chalmers 1919) was provided by Dr. Maria Angeles Calvo (Microbiology Laboratory, Faculty of Veterinary, Autonomous University of Barcelona, Spain)
The day before of the experiment with tissue, the E. coli strain was inoculated in Luria Bertani broth (Pharmacy, Hospital Vail d'Hebron, Autonomous University of Barcelona, Spain) at 37° C. under aerobic conditions for 24 h. The day of the experiment bacteria were harvested in the stationary phase, cell counts in the bacterial suspension were estimated by optical density at 600 nm absorbance, and bacteria were added to the tissue-culture wells at the appropriate dilution.
In order to quantify only the adherent E. coli bacteria, at the end of the culture, tissues were recovered and rinsed with 2 ml of saline in an orbital mixer at low speed during 2 minutes. After rinsing, each tissue was homogenized in 1 ml of saline and dilutions were prepared to quantify the recovery of E. coli in solid agar selective media. […]

[2] = tested on: TNF-α; assay: TNF-α release into the supernatant of human colon mucosa organ culture with E. coli (ELISA); assay type: cell-based; conditions: for TNF-alfa (1.5 ml standarized 30 mg) / TNF-alfa/ml: individual samples, listed as Fag; for TNF-alfa (1.5 ml standarized 30 mg, Average): mean of 2 samples; for TNF-alfa/ml: supernatant after 4 h
Description: as §1, §2, §3, §4, §5, §6
Concentration of TNF-α in the supernatants was measured using a commercially available ELISA assay system for human citoquine TNF-α (Ready to Set, e-Bioscience). Cytokine concentration is expressed as pg (TNF-α) per 30 mg of tissue.

[3] = tested on: bacteria; conditions: WO2011117362; cited from earlier work
[4] = tested on: bacteria; conditions: Gomez L. et al.; Castillo J. A. et al.; cited from earlier work
[5] = Gomez L. et al. Br. J. Nutr. 2012; cited from earlier work
[6] = tested on: colon tissue; assay: Colon viability (LDH release); assay type: cell-based, human
Description: as §3, §6
To estimate tissue viability, we calculated LDH (lactate-dehydrogenase) activity release in the supernatant. This method was validated by Finnie (Gut 1995). The ratio of LDH activity in the supernatant over total LDH activity in tissue homogenates was calculated and used to estimate the percentage of viable tissue. Tissue samples were homogenized in Tris/HCl (100 mmol/L, pH 7.4) and supernatants were analysed for LDH using the spectrophotometric method. Tissue viability was assessed as the release of LDH per mg of tissue.

[7] = Kim H. et al. 2005; cited from earlier work
[8] = D-fagomine 50 μg/ml, listed as Fag
[9] = D-fagomine 500 μg/ml, listed as Fag
[10] = D-fagomine 50 μg/ml with E. coli
[11] = D-fagomine 500 μg/ml with E. coli
[12] = D-fagomine 5000 μg/ml with E. coli

## OC[C@H]1NCC[C@@H](O)[C@@H]1O (stereo in doubt) [D-fagomine, (2R, 3R, 4R)-2-hydroxymethylpiperidine-3,4-diol]
[1]; 50, 500 and 5000 μg/ml
  Antiadherent effect against E. coli on colon mucosa (in words): antiadherent properties against E. coli in a dose dependent manner; also recorded: antiadherent effect against E. coli on the colon epithelium
[1]; [8]
  E coli × 10 6 Recovery on tissue: 4 × 10 6 and 4.4 × 10 6
  E coli × 10 6 Standarized 30 mg: 4.12 × 10 6 and 4.31 × 10 6
[1]; D-fagomine 50 μg/ml
  E coli × 10 6 Standarized 30 mg, Average: 4.22 × 10 6
  E. coli recovery in tissue, Average % over control: 56.6%
[1]; [9]
  E coli × 10 6 Recovery on tissue: 2.4 × 10 6 and 0.8 × 10 6
  E coli × 10 6 Standarized 30 mg: 2.21 × 10 6 and 0.9 × 10 6
[1]; D-fagomine 500 μg/ml
  E coli × 10 6 Standarized 30 mg, Average: 1.56 × 10 6
  E. coli recovery in tissue, Average % over control: 21.0%
[1]; D-fagomine 5000 μg/ml
  E coli × 10 6 Recovery on tissue: 1.6 × 10 6
  E coli × 10 6 Standarized 30 mg, Average: 1.47 × 10 6
[1]; D-fagomine 5000 μg/ml, listed as Fag
  E coli × 10 6 Standarized 30 mg: 1.4 × 10 6 and 1.55 × 10 6
[1]; D-fagomine 50 or 5000 μg/ml
  E. coli recovery in tissue, Average % over control: 19.8%
[2]; 50 μg/mL versus 500 μg/mL
  TNF-alfa release at 50 μg/mL, times higher than at 500 μg/mL: 5 times
[2]; 50 μg/mL versus 5000 μg/mL
  TNF-alfa release at 50 μg/mL, times higher than at 5000 μg/mL: ~8 times
[2]; 50, 500 and 5000 μg/ml with E. coli
  Stimulation of TNF-alfa release (in words): capacity to stimulate the release of TNF-alfa and that the lower is the dose the more potent is such release; also recorded: stimulating the release of TNF-alfa either with respect to the control with E. coli or with respect to the control without E. coli
[2]; [10]
  TNF-alfa (1.5 ml standarized 30 mg): 145.4 pg (TNF-α) per 30 mg of tissue and 164.2 pg (TNF-α) per 30 mg of tissue
  TNF-alfa (1.5 ml standarized 30 mg, Average): 154.8 pg (TNF-α) per 30 mg of tissue
  TNF-alfa/ml: 106.2 mL⁻¹ and 98.8 mL⁻¹
[2]; [11]
  TNF-alfa (1.5 ml standarized 30 mg): 31.9 pg (TNF-α) per 30 mg of tissue and 28.6 pg (TNF-α) per 30 mg of tissue
  TNF-alfa (1.5 ml standarized 30 mg, Average): 30.3 pg (TNF-α) per 30 mg of tissue
  TNF-alfa/ml: 20.7 mL⁻¹ and 18.6 mL⁻¹
[2]; [12]
  TNF-alfa (1.5 ml standarized 30 mg): 8.2 pg (TNF-α) per 30 mg of tissue and 18.1 pg (TNF-α) per 30 mg of tissue
  TNF-alfa (1.5 ml standarized 30 mg, Average): 13.2 pg (TNF-α) per 30 mg of tissue
  TNF-alfa/ml: 13.8 mL⁻¹ and 5.7 mL⁻¹
[3]
  Bacterial adherence to mucosal surface (in words): inhibiting bacterial adherence to mucosal surface
[4]
  Antimicrobial activity (in words): do not show antimicrobial activity
[5]
  Postprandial blood glucose level and insulin secretion (in words): decrease postprandrial blood glucose level without stimulating insulin secretion
[6]; E. coli + D-fagomine 50 μg/ml
  Viability LDH: 88.20%
[6]; E. coli + D-fagomine 500 μg/ml
  Viability LDH: 91.47%
[6]; E. coli + D-fagomine 5000 μg/ml
  Viability LDH: 83.88%
[6]; coculture with E. coli or fagomine
  Effect on viability of the tissue (in words): does not affect the viability of the tissue

## C[C@@H]1O[C@@H](OC[C@H]2O[C@@H](Oc3c(-c4ccc(O)c(O)c4)oc4cc(O)cc(O)c4c3=O)[C@H](O)[C@@H](O)[C@@H]2O)[C@H](O)[C@H](O)[C@H]1O [rutin]
[7]
  Stability and deglycosylation in the intestine after oral administration (in words): stable in the upper intestine, but rapidly deglycosylated to liberate the quercetin at the level of the colon
